This passage reports EC50 results from PMC7139405, “Real-Time 3D Imaging and Inhibition Analysis of Various Amyloid Aggregations Using Quantum Dots” (International Journal of Molecular Sciences, 2020).

Molecules are shown by their SMILES. pEC50: −log10 of the molar value.

One experiment deals with T1, α-synuclein (Homo sapiens, UniProt P37840).
T1 construct: gene SNCA
Put plainly: aggregation inhibition of purified protein, quantum-dot fluorescence imaging (MSHTS). Type of experiment: biochemical.

The target in a further experiment is T2, Amyloid β (Aβ42) (Homo sapiens, UniProt P05067).
T2 construct: gene APP
T2 sequence (P05067 672-713): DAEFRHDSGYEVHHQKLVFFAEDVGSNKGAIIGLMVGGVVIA
The experiment is described as follows: aggregation inhibition of isolated peptide, quantum-dot fluorescence imaging (MSHTS). The experiment is classed as biochemical. The text has this:
aggregation inhibition of isolated peptide, quantum-dot fluorescence imaging (MSHTS) on Amyloid β (Aβ42) | RA inhibited the aggregation of Aβ and α-synuclein proteins in vitro in a dose-dependent manner

In general, pEC50 refers to the EC50 on a negative log10 scale, so that one unit is a factor of ten. A higher pEC50 goes with a small EC50. For the compound `O=C(/C=C/c1ccc(O)c(O)c1)O[C@H](Cc1ccc(O)c(O)c1)C(=O)O` [RA, rosmarinic acid], the pEC50 on α-synuclein was 5.68; on Amyloid β (Aβ42), 4.69.
